Measured values taken from US20050197350A1, “Novel quinoline, tetrahydroquinazoline, and pyrimidine derivatives and methods of treatment related to the use thereof” (TAISHO PHARMACEUTICAL CO., LTD., priority 2003, published 2005).
pIC50: −log10 of the molar value. Counter-ions that a name gives are not always drawn.

test system: MCH receptors; assay: MCH receptor activity class (method not given); conditions: MCH receptor; class by percent of control at 10^-7 M or IC50

SMILES	class
CN(C)c1cc(N[C@H]2CC[C@@H](NC(=O)c3cc(C(F)(F)F)cc(C(F)(F)F)c3)CC2)nc2ccccc12 [compound 78, N-(cis-4-{[4-(dimethylamino)quinolin-2-yl]amino}cyclohexyl)-3,5-bis(trifluoromethyl)benzamide]	2 (Class 2: The value of percent of control at 10^−7 M was from 40% to 60% or the value of IC′50 was from 50 nM to 200 nM.)

target: MCH receptor (Homo sapiens, UniProt Q99705); assay: High throughput functional screening FLIPR/FDSS6000 (intracellular Ca2+ evoked by MCH); format: cell-based; conditions: FLIPR/FDSS, antagonist activity vs 50 nM MCH; class by percent of control at 10^−7 M or IC50; read-out: class
From the text: High Throughput Functional Screening: FLIPR™
This assay utilized a non-endogenous, constitutively active version of the MCH receptor.
The concentration of free Ca^2+ in the cytosol of any cell is extremely low, whereas its concentration in the extracellular fluid and endoplasmic reticulum (ER) is very high. Thus, there is a large gradient tending to drive Ca^2+ into the cytosol across both the plasma membrane and ER. The FLIPR™ and FDSS6000™ systems (Molecular Devices Corporation, […] Photonics K.K.) are designed to perform functional cell-based assays, such as the measurement of intracellular calcium for high-throughput screening. The measurement of fluorescent is associated with calcium release upon activation of the Gq-coupled receptors.
Fluorometric Imaging Plate Reader system was used to allow for rapid, kinetic measurements of intracellular fluorescence in 96 well microplates (or 384 well microplates). Simultaneous measurements of fluorescence in all wells can be made by FLIPR or FDSS6000™ every second with high sensitivity and precision. These systems are ideal for measuring cell-based functional assays such as monitoring the intracellular calcium fluxes that occur within seconds after activation of the Gq coupled receptor.
Briefly, the cells are seeded into 96 well at 5.5×10^4 cells/well with complete culture media (Dulbecco's Modified Eagle Medium with 10% fetal bovine serum, 2 mM L-glutamine, 1 mM sodium pyruvate and 0.5 mg/ml G418, pH 7.4) for the assay next day. On the day of assay, the media is removed and the cells are incubated with 100 μl of loading buffer (4 μM Fluo4-AM in complete culture media containing 2.5 mM Probenicid, 0.5 mg/ml and 0.2% bovine serum albumin) in 5% CO2 incubator at 37° C. for 1 hr. The loading buffer is removed, and the cells are washed with wash buffer (Hank's Balanced Salt Solution containing 2.5 mM Probenicid, 20 mM HEPES, 0.5 mg/ml and 0.2% bovine serum albumin, pH 7.4)). One hundred fifty μl of wash buffer containing various concentrations of test compound is added to the cells, and the cells are incubated in 5% CO2 incubator at 37° C. for 30 min. […] 530 nm for 290 second. When antagonist activity of compound is tested, 50 nM of MCH is used.
Use of FLIPR™ and FDSS6000™ can be accomplished by following manufacturer's instruction (Molecular Device Corporation and […] Photonics K.K.).

SMILES	pIC50
Cc1cnc(N[C@H]2CC[C@@H](NC(=O)COc3cc(C(F)(F)F)nn3C)CC2)nc1N(C)C [Example 3356, N-(cis-4-{[4-(dimethylamino)-5-methylpyrimidin-2-yl]amino}cyclohexyl)-2-{[1-methyl-3-(trifluoromethyl)-1H-pyrazol-5-yl]oxy}acetamide]	> 7.30
Cc1cc(N(C)C)nc(N[C@H]2CC[C@@H](NC(=O)c3cccnc3S(=O)(=O)c3ccccc3C(F)(F)F)CC2)n1 [Example 3381, N-(cis-4-{[4-(dimethylamino)-6-methylpyrimidin-2-yl]amino}cyclohexyl)-2-{[2-(trifluoromethyl)phenyl]-sulfonyl}nicotinamide]	< 6.70
Cc1cnc(N[C@H]2CC[C@@H](NC(=O)[C@@H]3C[C@H]3c3ccc(F)c(F)c3)CC2)nc1N(C)C (relative stereo) [Example 3318, trans-2-(3,4-difluorophenyl)-N-(cis-4-{[4-(dimethylamino)-5-methylpyrimidin-2-yl]amino}cyclohexyl)-cyclopropanecarboxamide]	> 7.30
Cc1cnc(N[C@H]2CC[C@@H](NC(=O)Nc3cc(Cl)ccc3Cl)CC2)nc1N(C)C [Example 3342, N-(2,5-dichlorophenyl)-N′-(cis-4-{[4-(dimethylamino)-5-methylpyrimidin-2-yl]amino}cyclohexyl)urea]	6.70 to 7.30
Cc1cnc(NC2CCC(C(=O)N[C@@H](C)c3cccc(C(F)(F)F)c3)CC2)nc1N(C)C (stereo partly drawn) [Example 3298, 4-{[4-(dimethylamino)-5-methylpyrimidin-2-yl]amino}-N-{(1S)-1-[3-(trifluoromethyl)phenyl]ethyl}cyclohexanecarboxamide]	> 7.30
Cc1cccc(S(=O)(=O)c2ncccc2C(=O)N[C@H]2CC[C@@H](Nc3nc(C)cc(N(C)C)n3)CC2)c1 [Example 3376, N-(cis-4-{[4-(dimethylamino)-6-methylpyrimidin-2-yl]amino}cyclohexyl)-2-[(3-methylphenyl)sulfonyl]nicotinamide]	< 6.70

Second part, the molecule after the results:

pIC50	SMILES
6.70 to 7.30	Cc1cnc(N[C@H]2CC[C@@H](NC(=O)c3cccnc3S(=O)(=O)c3ccc(C(F)(F)F)cc3)CC2)nc1N(C)C [Example 3291, N-(cis-4-{[4-(dimethylamino)-5-methylpyrimidin-2-yl]amino}cyclohexyl)-2-{[4-(trifluoromethyl)phenyl]sulfonyl}-nicotinamide]
< 6.70	COc1nc(N[C@H]2CC[C@@H](NC(=O)c3ccc(OC(F)(F)F)cc3)CC2)ncc1C [Example 3277, N-{cis-4-[(4-methoxy-5-methylpyrimidin-2-yl)amino]cyclohexyl}-4-(trifluoromethoxy)benzamide]

same assay, conditions: FLIPR/FDSS, antagonist activity vs 50 nM MCH; class by percent of control at 10^−7 M or IC50; table after the classification; read-out: class

SMILES	pIC50
Cc1cnc(N[C@H]2CC[C@@H](NC(=O)c3cccnc3Oc3ccccc3Br)CC2)nc1N(C)C [Example 3124, 2-(2-Bromo-phenoxy)-N-[cis-4-(4-dimethylamino-5-methyl-pyrimidin-2-ylamino)-cyclohexyl]-nicotinamide hydrochloride]	> 7.30
CN(C)c1ccnc(N[C@H]2CC[C@@H](NC(=O)Cc3ccc(F)c(F)c3)CC2)n1 [Example 3204, 2-(3,4-Difluoro-phenyl)-N-[cis-4-(4-dimethylamino-pyrimidin-2-ylamino)-cyclohexyl]-acetamide hydrochloride]	6.70 to 7.30
CN(C)c1ccnc(N[C@H]2CC[C@@H](NC(=O)c3ccc(-c4ccc(Cl)cc4)o3)CC2)n1 [Example 3199, 5-(4-Chloro-phenyl)-furan-2-carboxylic acid [cis-4-(4-dimethylamino-pyrimidin-2-ylamino)-cyclohexyl]-amide hydrochloride]	> 7.30
Cc1cc(N(C)C)nc(N[C@H]2CC[C@@H](NC(=O)c3cccc(Cl)c3)CC2)n1 [Example 3128, 3-Chloro-N-[cis-4-(4-dimethylamino-6-methyl-pyrimidin-2-ylamino)-cyclohexyl]-benzamide hydrochloride]	> 7.30
CN(C)c1ccnc(N[C@H]2CC[C@@H](NC(=O)c3cncc(Br)c3)CC2)n1 [Example 3211, 5-Bromo-N-[cis-4-(4-dimethylamino-pyrimidin-2-ylamino)-cyclohexyl]-nicotinamide hydrochloride]	> 7.30
CN(C)c1ccnc(N[C@H]2CC[C@@H](CNC(=O)c3ccc(F)c(F)c3)CC2)n1 [Example 3219, N-[cis-4-(4-Dimethylamino-pyrimidin-2-ylamino)-cyclohexylmethyl]-3,4-difluoro-benzamide hydrochloride]	6.70 to 7.30
CN(C)c1cc(N[C@H]2CC[C@@H](CNC(=O)c3cccnc3Oc3ccccc3)CC2)nc2ccccc12 [Example 3118, N-[cis-4-(4-Dimethylamino-quinolin-2-ylamino)-cyclohexylmethyl]-2-phenoxy-nicotinamide hydrochloride]	< 6.70
COc1cc(OC)cc(C(=O)N[C@H]2CC[C@@H](Nc3nc4c(c(N(C)C)n3)CCCC4)CC2)c1 [Example 3110, N-[cis-4-(4-Dimethylamino-5,6,7,8-tetrahydro-quinazolin-2-ylamino)-cyclohexyl]-3,5-dimethoxy-benzamide hydrochloride]	> 7.30
CNc1nc(N[C@H]2CC[C@@H](NCCc3ccc(Br)cc3OC(F)(F)F)CC2)nc2c1CCCC2 [Example 10, N^2-{cis-4-[2-(4-Bromo-2-trifluorometboxy-phenyl)-ethylamino]-cyclohexyl}-N^4-methyl-5,6,7,8-tetrahydro-quinazoline-2,4-diamine dihydrochloride]	6.70 to 7.30
Cc1cnc(N[C@H]2CC[C@@H](NC(=O)c3cccnc3Oc3ccccc3)CC2)nc1N(C)C [Example 3120, N-[cis-4-(4-Dimethylamino-5-methyl-pyrimidin-2-ylamino)-cyclohexyl]-2-phenoxy-nicotinamide hydrochloride]	> 7.30
Cc1cnc(N[C@H]2CC[C@@H](NC(=O)c3ccc(F)c(Cl)c3)CC2)nc1N [Example 3392, N-[cis-4-(4-Amino-5-methyl-pyrimidin-2-ylamino)-cyclohexyl]-3-chloro-4-fluoro-benzamide hydrochloride]	< 6.70

Other lines, results leading:

pIC50	SMILES
< 6.70	O=C(O)c1cccc(C(=O)N[C@H]2CC[C@@H](Nc3ccc4ccccc4n3)CC2)c1 [Example 3150, N-[cis-4-(Quinolin-2-ylamino)-cyclohexyl]-isophthalamic acid]
> 7.30	CCN(CC(=O)N[C@H]1CC[C@@H](Nc2ccc3ccccc3n2)CC1)c1ccccc1 [Example 3151, C-(Ethyl-phenyl-amino)-N-[cis-4-(quinolin-2-ylamino)-cyclohexyl]-acetamide dihydrochloride]
> 7.30	Cc1cc(N[C@H]2CC[C@@H](NC(=O)c3cccc(C(F)(F)F)c3)CC2)nc2ccccc12 [Example 3088, N-[cis-4-(4-Methyl-quinolin-2-ylamino)-cyclohexyl]-3-trifluoromethyl-benzamide hydrochloride]
< 6.70	Cc1cc(N[C@H]2CC[C@@H](NC(=O)c3cccnc3)CC2)nc2ccccc12 [Example 3182, N-[cis-4-(4-Methyl-quinolin-2-ylamino)-cyclohexyl]-nicotinamide hydrochloride]
> 7.30	Cc1cc(N[C@H]2CC[C@@H](NC(=O)c3ccc(Br)o3)CC2)nc2ccccc12 [Example 3083, 5-Bromo-furan-2-carboxylic acid-[cis-4-(4-methyl-quinolin-2-ylamino)-cyclohexyl]-amide hydrochloride]
> 7.30	Cc1cc(N[C@H]2CC[C@@H](NC(=O)c3cncc(Br)c3)CC2)nc2ccccc12 [Example 3185, 5-Bromo-N-[cis-4-(4-methyl-quinolin-2-ylamino)-cyclohexyl]-nicotinamide dihydrochloride]
< 6.70	NC(=O)c1cccc(C(=O)N[C@H]2CC[C@@H](Nc3ccc4ccccc4n3)CC2)c1 [Example 3155, N-[cis-4-(Quinolin-2-ylamino)cyclohexyl]-isophthalamide hydrochloride]
6.70 to 7.30	Cc1cc(N[C@H]2CC[C@@H](NC(=O)c3cc(F)ccc3F)CC2)nc2ccccc12 [Example 3164, 2,5-Difluoro-N-[cis-4-(4-methyl-quinolin-2-ylamino)-cyclohexyl]-benzamide hydrochloride]
